The values that follow come from the supplement of paper PMC10307832.

Test in all cases: relative viability (nuclei count vs DMSO), 5 days (fraction); higher = more cells survive
Compound in assay [1]: C(C(=O)C(=O)O)Br [Bromopyruvate] + CC(C)C[C@H](NC(=O)[C@H](Cc1ccccc1)NC(=O)c1cnccn1)B(O)O [Bortezomib] (partner 0.002 µM)
A digest of the protocol: (§1)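 Relative viability is defined as nuclei in treated wells over nuclei in vehicle wells. Duplicate plates were run and medians reported. Lung cancer cell lines in 1536-well plates were dosed by pin tool one day after seeding, with one drug or with a fixed anchor-drug dose plus five library-drug doses (not always all listed) in √10 steps, and nuclei were counted after 5 days.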

Compound in assay [2]: C(C(=O)C(=O)O)Br [Bromopyruvate] + O=C(CCCCCCC(=O)Nc1ccccc1)NO [Vorinostat] (partner 1 µM)
The procedure, abridged:
as §1

Compound in the assay “Bicalutamide + OSI-027”: CC(O)(CS(=O)(=O)c1ccc(F)cc1)C(=O)Nc1ccc(C#N)c(C(F)(F)F)c1 [Bicalutamide] + COc1cccc2cc(-c3nc([C@H]4CC[C@H](C(=O)O)CC4)n4ncnc(N)c34)[nH]c12 [OSI-027] (partner 0.5 µM)
A digest of the protocol:
as §1

Compound in assay [3]: CC(O)(CS(=O)(=O)c1ccc(F)cc1)C(=O)Nc1ccc(C#N)c(C(F)(F)F)c1 [Bicalutamide] + Nc1ncn([C@H]2C[C@H](O)[C@@H](CO)O2)c(=O)n1 [Decitabine] (partner 2 µM)
The procedure, abridged: as §1

For UMC-11, the relative viability in assay [1] (first compound 1 µM) worked out at 0.817; in assay [1] (first compound 3.162 µM), 0.79; in assay [1] (first compound 10 µM), 0.846; in assay [1] (first compound 31.62 µM), 0.645; in assay [1] (first compound 100 µM) it was 0.721; in assay [2] (first compound 1 µM) it was 0.479. Besides, the relative viability in assay [2] (first compound 3.162 µM) was 0.357; in assay [2] (first compound 10 µM) it was 0.289; in assay [2] (first compound 31.62 µM) it was 0.274; in assay [2] (first compound 100 µM), 0.2; with Bicalutamide + OSI-027 (first compound 0.08 µM), 0.505; with Bicalutamide + OSI-027 (first compound 0.253 µM), 0.461. The relative viability with Bicalutamide + OSI-027 (first compound 0.8 µM) was determined as 0.591; in the assay with Bicalutamide + OSI-027 (first compound 2.53 µM) it was 0.395; in assay [3] (first compound 0.08 µM), 0.535; in assay [3] (first compound 0.253 µM), 0.507; in assay [3] (first compound 0.8 µM) it was 0.623; in assay [3] (first compound 2.53 µM), 0.555.
